Key:
MRSA strain 2973 = assay: FICI of F332 with antibiotics; type: cell-based, S. aureus
in vivo = conditions: male, Sprague-Dawley, rat
Method: Compound F332 was further subjected to in vivo pharmacokinetic study. The UPLC-MS/MS system consists of an Acquity Waters UPLC interfaced with triple quadrupole mass spectrometer (Micromass model Quattro Ultima) equipped with an electrospray ionization source in positive mode. Chromatographic separation was done on ACQUITY UPLC BEH C18 […] (2.1×50 mm) column. The mobile phase consists of methanol+0.1% formic acid (solvent B) and Milli-Q water+0.1% formic acid (solvent A). Multiple reaction monitoring (MRM) was set monitoring the transitions for F332 [M+H]^+ at 299>142 m/z. The collision energy, cone voltage, source temperature, desolvation temperature and capillary voltage are 25, 30, 150° C., 350° C. and 3 Kv, respectively. The cone gas and desolvation gas was 150 L/Hr and 600 L/Hr, respectively.
Male Sprague-Dawley (SD) rats (body weight 250-280 g) were obtained from Centralised Animal Facilities, The Hong Kong Polytechnic University. Animals were kept in a temperature and humidity controlled environment with 12 hour light-dark cycle with standard diet and water. Animal experiment protocol was approved by the Animal Subjects Ethics Sub-Committee of The Hong Kong Polytechnic University. Right jugular vein cannulation was done one day in advance of the experiment. Animal were fasted overnight and had free access to water throughout the experiment. F332 was freshly prepared in 5% CremophorEL, 5% ethanol, 90% saline at a concentration of 2 mg/ml. F332 was prepared on the day of use and used for animal study within half an hour. In the current study, F332 was administered through passive oral feeding (oral) and intravenous (IV) injection. Blood samples (approx. 500 μL) were collected in heparinzied tubes (20 units of heparin salt/tube) via jugular vein at 5, 10, 30, 45, 60, 120, 240 and 420 minutes post administration for IV study. As for oral study, plasma samples were collected at 2, 10, 30, 45, 60, 120, 240, 480 and 600 minutes. Blood plasma samples were collected by centrifuged at 16,100 G for 10 minutes. For all blood plasma samples, 3 fold volume of methanol was added for protein precipitation. Supernatant was filtered by a syringe filter before UPLC-MS/MS analysis. Pharmacokinetic parameters in plasma were determined by non-compartmental pharmacokinetics data analysis using Pharmacokinetics Solutions 2.0 software (Summit Research Services, Montrose, Colo., USA). The pharmacokinetic parameters determined include maximal plasma concentration (Cmax), time to reach maximal plasma concentration (Tmax), mean residence time (MRT), absorption/distribution half life (t1/2α), elimination half life (t1/2β), volume of distribution (Vd), systemic clearance (CL) and the area under the concentration-time curve (AUC).

MRSA strain 2919 = assay: FICI of F332 with antibiotics; type: cell-based, S. aureus
MRSA strain 2895 = assay: FICI of F332 with antibiotics; type: cell-based, S. aureus
MRSA strain 757 = assay: FICI of F332 with antibiotics; type: cell-based, S. aureus
Method: The bacterial strains used in this study were clinically isolated MRSA strains USA300#757 and #2960 which were obtained from our laboratory. Determination of the Fractional Inhibitory Concentration Index (FICI) was adopted by the Müller-Hinton broth (MHB) dilution method as previously described. Twelve serial two-fold dilutions of PC190723, F332 and F361 were prepared in the 96-well microplate with concentration ranging from 512 to 0.25 μg/mL. […] Lastly, the compounds and the β-lactams were mixed at a 1:1 ratio and subjected to two-fold dilution as described previously. Each microplate well contained 100 μL of MHB supplemented with compounds alone, β-lactams alone or the mixture of compounds and β-lactams. Overnight cultures of S. aureus in the Müller-Hinton broth was diluted to OD595 of 0.08-0.1 in saline and added in each of the microplate well. The plates were incubated at 37° C. for 20 h. All tests were performed in duplicate and the inhibition of bacterial growth was determined by visualization. The FICI of compounds and β-lactams were calculated as followed: FICI=(MIC of combination of compound and β-lactam/MIC of compound alone)+(MIC of combination of compound and β-lactam/MIC of β-lactam alone).

MRSA strain 3267 = assay: FICI of F332 with antibiotics; type: cell-based, S. aureus
MRSA strain 254 = assay: FICI of F332 with antibiotics; type: cell-based, S. aureus
MRSA strain 1344 = assay: FICI of F332 with antibiotics; type: cell-based, S. aureus
MRSA strain 2901 = assay: FICI of F332 with antibiotics; type: cell-based, S. aureus
MRSA strain 2728 = assay: FICI of F332 with antibiotics; type: cell-based, S. aureus

CCCCCCCCCNc1ccc(F)c(C(N)=O)c1F [Compound F332, 2,6-difluoro-3-(nonylamino)benzamide]
FICI of F332 combined with Amoxicillin (MRSA strain 2973): 0.08 | FICI of F332 combined with Cefuroxime (MRSA strain 2973): 0.53 | FICI of F332 combined with Cloxacillin (MRSA strain 2973): 0.07 | FICI of F332 combined with Meropenem (MRSA strain 2973): 4.03 | FICI of F332 combined with Meticillin (MRSA strain 2973): 0.28 | AUC (in vivo; iv, 1 mg/kg): 1740 ng·h/mL | AUC(0-t) (in vivo; iv, 1 mg/kg): 699 ng·h/mL | MRT (in vivo; iv, 1 mg/kg): 8.08 h | Vd (in vivo; iv, 1 mg/kg): 4.81 L/kg | clearance (in vivo; iv, 1 mg/kg): 10 mL/min/kg | half-life (in vivo; iv, 1 mg/kg, Absorption/distribution half life): 15 min | half-life (in vivo; iv, 1 mg/kg, Elimination half life): 349 min | AUC (in vivo; po, 50 mg/kg): 10400 ng·h/mL | AUC(0-t) (in vivo; po, 50 mg/kg): 8980 ng·h/mL | CL (area)/kg (in vivo; po, 50 mg/kg): 80 mL/min/kg | Cmax (in vivo; po, 50 mg/kg): 1920 ng/mL | MRT (in vivo; po, 50 mg/kg): 4.82 h | Tmax (in vivo; po, 50 mg/kg): 2 h | Vd (area)/kg (in vivo; po, 50 mg/kg): 20916 mL/kg | half-life (in vivo; po, 50 mg/kg): 180 min | half-life (in vivo; po, 50 mg/kg, Absorption/distribution half life): 21 min | bioavailability (in vivo; po, 50 mg/kg, Bioavailability): ~12% | FICI of F332 combined with Amoxicillin (MRSA strain 2919): 0.51 | FICI of F332 combined with Cefuroxime (MRSA strain 2919): 0.25 | FICI of F332 combined with Cloxacillin (MRSA strain 2919): 0.31 | FICI of F332 combined with Meropenem (MRSA strain 2919): 4.25 | FICI of F332 combined with Meticillin (MRSA strain 2919): 0.38 | FICI of F332 combined with Amoxicillin (MRSA strain 2895): 1.06 | FICI of F332 combined with Cefuroxime (MRSA strain 2895): 0.31 | FICI of F332 combined with Cloxacillin (MRSA strain 2895): 0.38 | FICI of F332 combined with Meropenem (MRSA strain 2895): 2.13 | FICI of F332 combined with Meticillin (MRSA strain 2895): 0.31 | FICI of F332 combined with Amoxicillin (MRSA strain 757): 0.27 | FICI of F332 combined with Cefuroxime (MRSA strain 757): 0.08 | FICI of F332 combined with Cloxacillin (MRSA strain 757): 0.13 | FICI of F332 combined with Meropenem (MRSA strain 757): 1.06 | FICI of F332 combined with Meticillin (MRSA strain 757): 0.09 | FICI of F332 combined with Amoxicillin (MRSA strain 3267): 0.25 | FICI of F332 combined with Cefuroxime (MRSA strain 3267): 0.01 | FICI of F332 combined with Cloxacillin (MRSA strain 3267): 0.25 | FICI of F332 combined with Meropenem (MRSA strain 3267): 4.01 | FICI of F332 combined with Meticillin (MRSA strain 3267): 0.07 | FICI of F332 combined with Amoxicillin (MRSA strain 254): 0.56 | FICI of F332 combined with Cefuroxime (MRSA strain 254): 0.25 | FICI of F332 combined with Cloxacillin (MRSA strain 254): 0.19 | FICI of F332 combined with Meropenem (MRSA strain 254): 1.50 | FICI of F332 combined with Meticillin (MRSA strain 254): 0.25 | FICI of F332 combined with Amoxicillin (MRSA strain 1344): 1.13 | FICI of F332 combined with Cefuroxime (MRSA strain 1344): 0.27 | FICI of F332 combined with Cloxacillin (MRSA strain 1344): 0.13 | FICI of F332 combined with Meropenem (MRSA strain 1344): 2.00 | FICI of F332 combined with Meticillin (MRSA strain 1344): 0.27 | FICI of F332 combined with Amoxicillin (MRSA strain 2901): 0.06 | FICI of F332 combined with Cefuroxime (MRSA strain 2901): 0.13 | FICI of F332 combined with Cloxacillin (MRSA strain 2901): 0.25 | FICI of F332 combined with Meropenem (MRSA strain 2901): 4.01 | FICI of F332 combined with Meticillin (MRSA strain 2901): 0.01 | FICI of F332 combined with Amoxicillin (MRSA strain 2728): 0.08 | FICI of F332 combined with Cefuroxime (MRSA strain 2728): 0.14 | FICI of F332 combined with Cloxacillin (MRSA strain 2728): 1.01 | FICI of F332 combined with Meropenem (MRSA strain 2728): 2.03 | FICI of F332 combined with Meticillin (MRSA strain 2728): 0.16
